Where two headings read alike, the source gives them in different places.
System: 1b_Huh-Luc/Neo-ET cell line (bicistronic genotype 1b replicon in Huh 7 cells)
Assay: HCV 1b replicon assay, luciferase readout
Format: cell-based, HCV genotype 1b
Procedure: Biological activity of the compounds of the invention was determined using an HCV replicon assay. The 1b_Huh-Luc/Neo-ET cell line persistently expressing a bicistronic genotype 1b replicon in Huh 7 cells was obtained from ReBLikon GMBH. This cell line was used to test compound inhibition using luciferase enzyme activity readout as a measurement of compound inhibition of replicon levels.
On Day 1 (the day after plating), each compound is added in triplicate to the cells. Plates incubated for 72 […] prior to running the luciferase assay. Enzyme activity was measured using a Bright-Glo Kit (cat. number E2620) manufactured by Promega Corporation. The following equation was used to generate a percent control value for each compound.
%Control=(Average Compound Value/Average Control)*100
The EC50 value was determined using GraphPad Prism and the following equation:
Y=Bottom+(Top−Bottom)/(1+10̂((LogIC50−X)*HillSlope))
EC50 values of compounds are repeated several times in the replicon assay.

[1] = Hepatitis C virus, Huh-7, 1b_Huh-Luc/Neo-ET cell line, read-out: EC50, half-maximal inhibition of HCV 1b replication
[2] = Hepatitis C virus, Huh-7, class symbol, HCV genotype 1b replicon, read-out: Inhibition of HCV genotype 1b replicon
[3] = class symbol, HCV genotype 1b replicon, read-out: Inhibition of HCV genotype 1b replicon

SMILES	EC50 [1] [nM]	EC50 [2] [nM]	EC50 [3] [nM]
[2H]C([2H])([2H])NC(=O)c1c(-c2ccc(Oc3ccc(F)cc3)cc2)oc2cc3c(cc12)C(C)N(C)CCN3S(C)(=O)=O (centres unmarked) [Compound B160]	10 to 100	10 to 100	–
CNC(=O)c1c(-c2ccc(F)cc2)oc2cc3c(cc12)C(C)N(c1ccc(F)cc1)CCN3S(C)(=O)=O (centres unmarked) [Compound B165]	10 to 100	10 to 100	–
CC1c2cc3c(-c4ncc[nH]4)c(-c4ccc(Oc5ccc(F)cc5)cc4)oc3cc2N(S(C)(=O)=O)CCN1C (centres unmarked) [Compound B166]	10 to 100	10 to 100	–
CNC(=O)c1c(-c2ccc(Oc3ccc(F)cc3)cc2)oc2cc3c(cc12)C(C)OC(C)(C)CN3S(C)(=O)=O (centres unmarked) [Compound B167]	10 to 100	10 to 100	–
CNC(=O)c1c(-c2ccc(Oc3ccc(F)cc3)cc2)oc2cc3c(cc12)C(C)OC(C)CN3S(C)(=O)=O (centres unmarked) [Compound B168]	≤ 10	< 10	–
CNC(=O)c1c(-c2ccc(F)cc2)oc2cc3c(cc12)C(C)N(C)C(=O)CN3S(C)(=O)=O (centres unmarked) [Compound B172]	10 to 100	10 to 100	–
CNC(=O)c1c(-c2ccc(F)cc2)oc2cc3c(cc12)C(C)NC(=O)CN3S(C)(=O)=O (centres unmarked) [Compound B173]	10 to 100	10 to 100	–
CNC(=O)c1c(-c2ccc(Oc3ccc(F)cc3)cc2)oc2cc3c(cc12)C(C)N(C)C(=O)CN3S(C)(=O)=O (centres unmarked) [Compound B174]	10 to 100	10 to 100	–
CNC(=O)c1c(-c2ccc(Oc3ccc(F)cc3)cc2)oc2cc3c(cc12)C(C)NC(=O)CN3S(C)(=O)=O (centres unmarked) [Compound B175]	10 to 100	10 to 100	–
CNC(=O)c1c(-c2ccc(Oc3ccc(F)cc3)cc2)oc2cc3c(cc12)C(C)OC1(CC1)CN3S(C)(=O)=O (centres unmarked) [Compound B178]	10 to 100	10 to 100	–
CNC(=O)c1c(-c2ccc(F)cc2)oc2cc3c(cc12)C(C)OC(C)(C)CN3S(C)(=O)=O (centres unmarked) [Compound B183]	10 to 100	10 to 100	–
CNC(=O)c1c(-c2ccc(F)cc2)oc2cc3c(cc12)C(C)OC1(CC1)CN3S(C)(=O)=O (centres unmarked) [Compound B188]	10 to 100	10 to 100	–
CNC(=O)c1c(-c2ccc(F)cc2)oc2cc3c(cc12)C(C)n1nnnc1CN3S(C)(=O)=O (centres unmarked) [Compound B189]	10 to 100	10 to 100	–
CNC(=O)c1c(-c2ccc(F)cc2)oc2cc3c(cc12)C(C)OC(C)CN3S(C)(=O)=O (centres unmarked) [Compound B190]	≤ 10	< 10	–
CNC(=O)c1c(-c2ccc(Oc3ccc(F)cc3)cc2)oc2cc3c(cc12)C(C)OC(CO)CN3S(C)(=O)=O (centres unmarked) [Compound B191]	–	–	< 10
CNC(=O)c1c(-c2ccc(F)cc2)oc2cc3c(cc12)C(C)OC(CO)CN3S(C)(=O)=O (centres unmarked) [Compound B195]	10 to 100	10 to 100	–
CNC(=O)c1c(-c2ccc(F)cc2)oc2cc3c(cc12)C(C)OC(CS(C)(=O)=O)CN3S(C)(=O)=O (centres unmarked) [Compound B196]	≤ 10	< 10	–
CC1CCCN(S(C)(=O)=O)c2cc3oc(-c4ccc(Oc5ccc(F)cc5)cc4)c(-c4ncc[nH]4)c3cc21 (centres unmarked) [Compound B198]	≤ 10	< 10	–
CNC(=O)c1c(-c2ccc(F)cc2)oc2cc3c(cc12)C(C)c1ccccc1CN3S(C)(=O)=O (centres unmarked) [Compound B199]	10 to 100	10 to 100	–
CNC(=O)c1c(-c2ccc(F)cc2)oc2cc3c(cc12)CCc1ccccc1CN3S(C)(=O)=O [Compound B200]	10 to 100	10 to 100	–
CC1OCCN(S(C)(=O)=O)c2cc3oc(-c4ccc(Oc5ccc(F)cc5)cc4)c(-c4ncc[nH]4)c3cc21 (centres unmarked) [Compound B202]	10 to 100	10 to 100	–

SMILES	EC50 [1] [nM]	EC50 [2] [nM]	EC50 [3] [nM]
CNC(=O)c1c(-c2ccc(F)cc2)oc2cc3c(cc12)C(C)OC(CN1CCOCC1)CN3S(C)(=O)=O (centres unmarked) [Compound B205]	10 to 100	10 to 100	–
CNC(=O)c1c(-c2ccc(Oc3ccc(F)cc3)cc2)oc2cc3c(cc12)[C@@H](C)O[C@@H](CS(C)(=O)=O)CN3S(C)(=O)=O [Compound B206]	–	100 to 1000	–
CNC(=O)c1c(-c2ccc(F)cc2)oc2cc3c(cc12)C(C)O[C@@H](c1ccc(F)cc1)CN3S(C)(=O)=O (some centres unmarked) [Compound B210]	10 to 100	10 to 100	–
CNC(=O)c1c(-c2ccc(F)cc2)oc2cc3c(cc12)[C@@H](C)O[C@@H](CO)CN3S(C)(=O)=O [Compound B211]	–	> 1000	–
CNC(=O)c1c(-c2ccc(F)cc2)oc2cc3c(cc12)[C@@H](C)O[C@@H](CS(C)(=O)=O)CN3S(C)(=O)=O [Compound B213]	–	> 1000	–
CNC(=O)c1c(-c2ccc(F)cc2)oc2cc3c(cc12)[C@H](C)O[C@H](CS(C)(=O)=O)CN3S(C)(=O)=O [Compound B215]	10 to 100	–	10 to 100
CNC(=O)c1c(-c2ccc(Oc3ccc(F)cc3)cc2)oc2cc3c(cc12)[C@H](C)O[C@H](CS(C)(=O)=O)CN3S(C)(=O)=O [Compound B216]	10 to 100	–	10 to 100
CNC(=O)c1c(-c2ccc(F)cc2)oc2cc3c(cc12)[C@@H](C)O[C@H](CO)CN3S(C)(=O)=O [Compound B217]	10 to 100	10 to 100	–
CNC(=O)c1c(-c2ccc(F)cc2)oc2cc3c(cc12)C(C)OC(CN=[N+]=[N-])CN3S(C)(=O)=O (centres unmarked) [Compound B218]	≤ 10	< 10	–
CNC(=O)c1c(-c2ccc(F)cc2)oc2cc3c(cc12)C(C)OCC(CO)N3S(C)(=O)=O (centres unmarked) [Compound B219]	10 to 100	10 to 100	–
CNC(=O)c1c(-c2ccc(F)cc2)oc2cc3c(cc12)C(C)OC(CNS(C)(=O)=O)CN3S(C)(=O)=O (centres unmarked) [Compound B220]	10 to 100	10 to 100	–
CNC(=O)c1c(-c2ccc(F)cc2)oc2cc3c(cc12)C(C)OC(CNC(=O)OC)CN3S(C)(=O)=O (centres unmarked) [Compound B221]	≤ 10	< 10	–
CNC(=O)c1c(-c2ccc(F)cc2)oc2cc3c(cc12)C(C)OC(CN(C)C)CN3S(C)(=O)=O (centres unmarked) [Compound B222]	10 to 100	10 to 100	–
CNC(=O)c1c(-c2ccc(F)cc2)oc2cc3c(cc12)C(C)OC(C(=O)N(C)C)CN3S(C)(=O)=O (centres unmarked) [Compound B223]	10 to 100	10 to 100	–
CNC(=O)c1c(-c2ccc(Oc3ccc(F)cc3)cc2)oc2cc3c(cc12)[C@H](C)O[C@@H](CS(C)(=O)=O)CN3S(C)(=O)=O [Compound B224]	10 to 100	10 to 100	–
CNC(=O)c1c(-c2ccc(F)cc2)oc2cc3c(cc12)C(C)OCC(CS(C)(=O)=O)N3S(C)(=O)=O (centres unmarked) [Compound B225]	10 to 100	10 to 100	–
CNC(=O)c1c(-c2ccc(F)cc2)oc2cc3c(cc12)C(C)OC(CC#N)CN3S(C)(=O)=O (centres unmarked) [Compound B226]	≤ 10	< 10	–
CNC(=O)c1c(-c2ccc(F)cc2)oc2cc3c(cc12)C(C)OC(C(=O)N1CCCC1)CN3S(C)(=O)=O (centres unmarked) [Compound B227]	10 to 100	10 to 100	–
CNC(=O)c1c(-c2ccc(F)cc2)oc2cc3c(cc12)C(C)OC(C(=O)N1CCOCC1)CN3S(C)(=O)=O (centres unmarked) [Compound B228]	10 to 100	10 to 100	–
CNC(=O)c1c(-c2ccc(F)cc2)oc2cc3c(cc12)C(C)OC(C(=O)NC)CN3S(C)(=O)=O (centres unmarked) [Compound B229]	10 to 100	10 to 100	–
CNC(=O)c1c(-c2ccc(F)cc2)oc2cc3c(cc12)[C@H](C)O[C@H](CCO)CN3S(C)(=O)=O [Compound B230]	10 to 100	10 to 100	–

— US20130302282A1, “Inhibitors of Hepatitis C Virus” (priority 2010, published 2013)
